# Laboratory results published in ChEMBL document CHEMBL5380831, “Azolylpyrimidinediols as Novel Structural Scaffolds of DNA-Groove Binders against Intractable Acinetobacter baumannii” (J Med Chem, 2023).
# Test system: Pseudomonas aeruginosa
# Test: Antibacterial activity against Pseudomonas aeruginosa assessed as bacterial growth inhibition incubated for 24 hrs by broth microdilution method
# Assay type: functional
row,SMILES,MIC
1,O=C(c1ccccc1)N1CCN(c2nccc(-n3cncn3)n2)CC1,382 µM
2,Cc1nccn1-c1nccc(N(CCO)CCO)n1,973 µM
3,CC(=O)Nc1ccc(S(=O)(=O)N2CCN(c3nccc(-n4cncn4)n3)CC2)cc1,598 µM
4,CC(C)c1nccn1-c1nccc(N(CCO)CCO)n1,440 µM
5,Cc1cc2ncn(-c3ccnc(N(CCO)CCO)n3)c2cc1C,98 µM

# Test system: Acinetobacter baumannii
# Test: Antibacterial activity against Acinetobacter baumannii assessed as bacterial growth inhibition incubated for 24 hrs by broth microdilution method
# Assay type: functional
row,SMILES,MIC
1,O=C(c1ccccc1)N1CCN(c2nccc(-n3cncn3)n2)CC1,764 µM
2,Cc1nccn1-c1nccc(N(CCO)CCO)n1,973 µM
3,CC(=O)Nc1ccc(S(=O)(=O)N2CCN(c3nccc(-n4cncn4)n3)CC2)cc1,598 µM
4,CC(C)c1nccn1-c1nccc(N(CCO)CCO)n1,440 µM
5,Cc1cc2ncn(-c3ccnc(N(CCO)CCO)n3)c2cc1C,391 µM
6,OCCN(CCO)c1nccc(-n2cnnn2)n1,510 µM

# Test system: Staphylococcus aureus
# Test: Antibacterial activity against Staphylococcus aureus assessed as bacterial growth inhibition incubated for 24 hrs by broth microdilution method
# Assay type: functional
row,SMILES,MIC
1,O=C(c1ccccc1)N1CCN(c2nccc(-n3cncn3)n2)CC1,764 µM
2,Cc1nccn1-c1nccc(N(CCO)CCO)n1,973 µM
3,CC(=O)Nc1ccc(S(=O)(=O)N2CCN(c3nccc(-n4cncn4)n3)CC2)cc1,299 µM
4,CC(C)c1nccn1-c1nccc(N(CCO)CCO)n1,879 µM
5,Cc1cc2ncn(-c3ccnc(N(CCO)CCO)n3)c2cc1C,98 µM
6,OCCN(CCO)c1nccc(-n2cnnn2)n1,1020 µM

# Test system: Enterococcus faecalis
# Test: Antibacterial activity against Enterococcus faecalis assessed as bacterial growth inhibition incubated for 24 hrs by broth microdilution method
# Assay type: functional
row,SMILES,MIC
1,O=C(c1ccccc1)N1CCN(c2nccc(-n3cncn3)n2)CC1,764 µM
2,Cc1nccn1-c1nccc(N(CCO)CCO)n1,973 µM
3,CC(=O)Nc1ccc(S(=O)(=O)N2CCN(c3nccc(-n4cncn4)n3)CC2)cc1,598 µM
4,CC(C)c1nccn1-c1nccc(N(CCO)CCO)n1,1790 µM
5,Cc1cc2ncn(-c3ccnc(N(CCO)CCO)n3)c2cc1C,196 µM
6,OCCN(CCO)c1nccc(-n2cnnn2)n1,1020 µM

# Test system: Staphylococcus aureus
# Test: Antibacterial activity against Staphylococcus aureus ATCC 29213 assessed as bacterial growth inhibition incubated for 24 hrs by broth microdilution method
# Assay type: functional
row,SMILES,MIC
1,O=C(c1ccccc1)N1CCN(c2nccc(-n3cncn3)n2)CC1,764 µM
2,Cc1nccn1-c1nccc(N(CCO)CCO)n1,973 µM
3,CC(=O)Nc1ccc(S(=O)(=O)N2CCN(c3nccc(-n4cncn4)n3)CC2)cc1,598 µM
4,CC(C)c1nccn1-c1nccc(N(CCO)CCO)n1,879 µM
5,Cc1cc2ncn(-c3ccnc(N(CCO)CCO)n3)c2cc1C,782 µM
6,OCCN(CCO)c1nccc(-n2cnnn2)n1,1020 µM

# Test system: Pseudomonas aeruginosa
# Test: Antibacterial activity against Pseudomonas aeruginosa ATCC 27853 assessed as bacterial growth inhibition incubated for 24 hrs by broth microdilution method
# Assay type: functional
row,SMILES,MIC
1,O=C(c1ccccc1)N1CCN(c2nccc(-n3cncn3)n2)CC1,764 µM
2,Cc1nccn1-c1nccc(N(CCO)CCO)n1,973 µM
3,CC(=O)Nc1ccc(S(=O)(=O)N2CCN(c3nccc(-n4cncn4)n3)CC2)cc1,598 µM
4,CC(C)c1nccn1-c1nccc(N(CCO)CCO)n1,879 µM
5,Cc1cc2ncn(-c3ccnc(N(CCO)CCO)n3)c2cc1C,98 µM
6,OCCN(CCO)c1nccc(-n2cnnn2)n1,1020 µM

# Test system: Klebsiella pneumoniae
# Test: Antibacterial activity against Klebsiella pneumoniae assessed as bacterial growth inhibition incubated for 24 hrs by broth microdilution method
# Assay type: functional
row,SMILES,MIC
1,O=C(c1ccccc1)N1CCN(c2nccc(-n3cncn3)n2)CC1,6 µM
2,Cc1nccn1-c1nccc(N(CCO)CCO)n1,973 µM
3,CC(=O)Nc1ccc(S(=O)(=O)N2CCN(c3nccc(-n4cncn4)n3)CC2)cc1,598 µM
4,CC(C)c1nccn1-c1nccc(N(CCO)CCO)n1,879 µM
5,Cc1cc2ncn(-c3ccnc(N(CCO)CCO)n3)c2cc1C,391 µM
6,OCCN(CCO)c1nccc(-n2cnnn2)n1,1020 µM

# Test system: Escherichia coli
# Test: Antibacterial activity against Escherichia coli assessed as bacterial growth inhibition incubated for 24 hrs by broth microdilution method
# Assay type: functional
row,SMILES,MIC
1,O=C(c1ccccc1)N1CCN(c2nccc(-n3cncn3)n2)CC1,764 µM
2,Cc1nccn1-c1nccc(N(CCO)CCO)n1,973 µM
3,CC(=O)Nc1ccc(S(=O)(=O)N2CCN(c3nccc(-n4cncn4)n3)CC2)cc1,598 µM
4,CC(C)c1nccn1-c1nccc(N(CCO)CCO)n1,879 µM
5,Cc1cc2ncn(-c3ccnc(N(CCO)CCO)n3)c2cc1C,196 µM
6,OCCN(CCO)c1nccc(-n2cnnn2)n1,1020 µM

# Test system: Escherichia coli
# Test: Antibacterial activity against Escherichia coli ATCC 25922 assessed as bacterial growth inhibition incubated for 24 hrs by broth microdilution method
# Assay type: functional
row,SMILES,MIC
1,O=C(c1ccccc1)N1CCN(c2nccc(-n3cncn3)n2)CC1,6 µM
2,Cc1nccn1-c1nccc(N(CCO)CCO)n1,1950 µM
3,CC(=O)Nc1ccc(S(=O)(=O)N2CCN(c3nccc(-n4cncn4)n3)CC2)cc1,598 µM
4,CC(C)c1nccn1-c1nccc(N(CCO)CCO)n1,1760 µM
5,Cc1cc2ncn(-c3ccnc(N(CCO)CCO)n3)c2cc1C,782 µM
6,OCCN(CCO)c1nccc(-n2cnnn2)n1,1020 µM

# Test system: Staphylococcus aureus
# Test: Antibacterial activity against methicillin-resistant Staphylococcus aureus assessed as bacterial growth inhibition incubated for 24 hrs by broth microdilution method
# Assay type: functional
row,SMILES,MIC
1,O=C(c1ccccc1)N1CCN(c2nccc(-n3cncn3)n2)CC1,764 µM
2,Cc1nccn1-c1nccc(N(CCO)CCO)n1,973 µM
3,CC(=O)Nc1ccc(S(=O)(=O)N2CCN(c3nccc(-n4cncn4)n3)CC2)cc1,598 µM
4,CC(C)c1nccn1-c1nccc(N(CCO)CCO)n1,1760 µM
5,Cc1cc2ncn(-c3ccnc(N(CCO)CCO)n3)c2cc1C,391 µM
6,OCCN(CCO)c1nccc(-n2cnnn2)n1,2040 µM

# Test system: Staphylococcus aureus
# Test: Antibacterial activity against Staphylococcus aureus ATCC 25923 assessed as bacterial growth inhibition incubated for 24 hrs by broth microdilution method
# Assay type: functional
row,SMILES,MIC
1,O=C(c1ccccc1)N1CCN(c2nccc(-n3cncn3)n2)CC1,764 µM
2,Cc1nccn1-c1nccc(N(CCO)CCO)n1,973 µM
3,CC(=O)Nc1ccc(S(=O)(=O)N2CCN(c3nccc(-n4cncn4)n3)CC2)cc1,299 µM
4,CC(C)c1nccn1-c1nccc(N(CCO)CCO)n1,440 µM
5,Cc1cc2ncn(-c3ccnc(N(CCO)CCO)n3)c2cc1C,391 µM
6,OCCN(CCO)c1nccc(-n2cnnn2)n1,1020 µM
